Data: US11840528B2 (Hoffmann-La Roche Inc., priority 2018, dated 2023)

Experiments:
h-GABA-A α5β3γ2 [1] = biological target: T1, h-GABA-A α5β3γ2 (Homo sapiens, UniProt P18507+P31644); assay: [3H]flumazenil competition binding assay, membranes of HEK293 cells expressing GABAA receptors; conditions: displacement of [3H]-Flumazenil 0.5 nM, HEK293 cells expressing human receptors, mean of two determinations; Table 1
How it was run: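 Membranes from HEK293 cells transiently expressing human α5β3γ2 GABAA receptors, in Krebs-tris buffer pH 7.5, competed against [3H]flumazenil for 1 hour at 4° C to equilibrium. Bound radioactivity collected on GF/C filters and counted by liquid scintillation; Ki values are means of two determinations.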

h-GABA-A α5β3γ2 [2] = biological target: T1, h-GABA-A α5β3γ2; assay: Two-electrode voltage clamp electrophysiology in Xenopus laevis oocytes expressing GABAA receptors, modulation of GABA EC20 current; format: cell-based; set-up: host or cells: Xenopus laevis oocytes micro-injected with RNA transcripts of the subunits; conditions: Table 1; for Efficacy (GABA) %: % modulation of GABA EC20 = 100*(Fold increase-1); for Fold increase h-GABA-A α5β3γ2 oocyte: test compound at approx. 30 fold its Ki, GABA at EC20
How it was run: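 Human α5β3γ2 GABAA receptors were expressed in Xenopus oocytes by RNA injection, with γ2 RNA 5–10-fold higher, and recorded 3–5 days later by two-electrode voltage clamp at −80 mV at room temperature. The test compound, at about 30× its Ki, was co-applied during a second GABA EC20 pulse. Efficacy is the extremum of the point-by-point ratio to the first response, expressed as 100*(Fold increase−1).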

Ki (h-GABA-A α5β3γ2 [1]) [nM] | Efficacy (GABA) % (h-GABA-A α5β3γ2 [2]) [%] | Fold increase h-GABA-A α5β3γ2 oocyte (h-GABA-A α5β3γ2 [2]) | Structure (SMILES)
29.7 | 80 | 1.8 | Cc1ccc(-c2noc(C)c2Cn2ncc(-c3ccc(C4CC4)nc3)cc2=O)cn1 [Example 173, 5-(6-cyclopropyl-3-pyridyl)-2-[[5-methyl-3-(6-methyl-3-pyridyl)isoxazol-4-yl]methyl]pyridazin-3-one]
16.6 | 111 | 2.11 | CO[C@H]1COC2(C1)CN(c1cnn(Cc3c(-c4ccc(C)nc4)noc3C)c(=O)c1)C2 [Example 134, 5-[(7R)-7-methoxy-5-oxa-2-azaspiro[3.4]octan-2-yl]-2-[[5-methyl-3-(6-methyl-3-pyridyl)isoxazol-4-yl]methyl]pyridazin-3-one]
26.2 | 119 | 2.19 | COc1cccc(-c2cnn(Cc3c(-c4ccc(C)nc4)noc3C)c(=O)c2)n1 [Example 145, 5-(6-methoxy-2-pyridyl)-2-((5-methyl-3-(6-methyl-3-pyridyl)isoxazol-4-yl)methyl)pyridazin-3-one]
9.4 | 140 | 2.4 | Cc1ccc(-c2noc(C)c2Cn2ncc(N3CC(OC(F)F)C3)cc2=O)cn1 [Example 168, 5-[3-(difluoromethoxy)azetidin-1-yl]-2-[[5-methyl-3-(6-methyl-3-pyridyl)isoxazol-4-yl]methyl]pyridazin-3-one]
38 | 101 | 2.01 | Cc1ccc(-c2noc(C)c2Cn2ncc(N3CC(OC(C)C)C3)cc2=O)cn1 [Example 112, 5-(3-isopropoxyazetidin-1-yl)-2-[[5-methyl-3-(6-methyl-3-pyridyl)isoxazol-4-yl]methyl]pyridazin-3-one]
0.6 | 136 | 2.36 | Cc1ccc(-c2noc(C)c2Cn2ncc(N3C[C@H]4CC[C@@H](C3)O4)cc2=O)cn1 [Example 28, 2-[[5-methyl-3-(6-methyl-3-pyridyl)isoxazol-4-yl]methyl]-5-[(1R,5S)-8-oxa-3-azabicyclo[3.2.1]octan-3-yl]pyridazin-3-one]
4.7 | 142 | 2.42 | Cc1ccc(-c2noc(C)c2Cn2ncc(N(C)C3COC3)cc2=O)cn1 [Example 65, 5-(methyl(oxetan-3-yl)amino)-2-((5-methyl-3-(6-methylpyridin-3-yl)isoxazol-4-yl)methyl)pyridazin-3(2H)-one]
0.6 | 145 | 2.45 | Cc1ccc(-c2noc(C)c2Cn2ncc(N3CCOC(C)(C)C3)cc2=O)cn1 [Example 6, 5-(2,2-dimethylmorpholin-4-yl)-2-((5-methyl-3-(6-methylpyridin-3-yl)-1,2-oxazol-4-yl)methyl)pyridazin-3-one]
14.6 | 99 | 1.99 | Cc1onc(-c2ccc(Cl)nc2)c1Cn1ncc(N2CC(OC(F)F)C2)cc1=O [Example 255, 2-((3-(6-chloropyridin-3-yl)-5-methylisoxazol-4-yl)methyl)-5-(3-(difluoromethoxy)azetidin-1-yl)pyridazin-3(2H)-one]
1.4 | 228 | 3.28 | Cc1ccc(-c2noc(C)c2Cn2ncc(N3C[C@H](C)O[C@@H](C)C3)cc2=O)cn1 (single isomer, unassigned) [Example 29, 5-[(2S,6S)-2,6-dimethylmorpholin-4-yl]-2-[[5-methyl-3-(6-methyl-3-pyridyl)isoxazol-4-yl]methyl]pyridazin-3-one or enantiomer]
10.8 | 152 | 2.52 | CO[C@@H]1CN(c2cnn(Cc3c(-c4ccc(C)nc4)noc3C)c(=O)c2)[C@@H]1C [Example 194, 5-[(2R,3R)-3-methoxy-2-methyl-azetidin-1-yl]-2-[[5-methyl-3-(6-methyl-3-pyridyl)isoxazol-4-yl]methyl]pyridazin-3-one]
39 | 196 | 2.96 | CCOc1ncc(-c2cnn(Cc3c(-c4ccc(C)nc4)noc3C)c(=O)c2)cc1C [Example 180, 5-(6-ethoxy-5-methylpyridin-3-yl)-2-((5-methyl-3-(6-methylpyridin-3-yl)isoxazol-4-yl)methyl)pyridazin-3(2H)-one]
7.8 | 136 | 2.36 | Cc1ccc(-c2noc(C)c2Cn2ncc(N3CC(Oc4ccccc4)C3)cc2=O)cn1 [Example 94, 2-[[5-methyl-3-(6-methyl-3-pyridyl)isoxazol-4-yl]methyl]-5-(3-phenoxyazetidin-1-yl)pyridazin-3-one]
31.2 | 99 | 1.99 | CCn1cc(-c2cnn(Cc3c(-c4ccc(Cl)nc4)noc3C)c(=O)c2)cn1 [Example 221, 2-((3-(6-chloropyridin-3-yl)-5-methylisoxazol-4-yl)methyl)-5-(1-ethyl-1H-pyrazol-4-yl)pyridazin-3(2H)-one]
30.4 | 149 | 2.49 | Cc1ccc(-c2noc(C)c2Cn2ncc(N3CC4(CNC4)C3)cc2=O)cn1 [Example 77, 5-(2,6-diazaspiro[3.3]heptan-2-yl)-2-[[5-methyl-3-(6-methyl-3-pyridyl)isoxazol-4-yl]methyl]pyridazin-3-one]
1.4 | 189 | 2.89 | Cc1ccc(-c2noc(C)c2Cn2ncc(N3CCO[C@@H](C)C3)cc2=O)cn1 [Example 89, 2-[[5-methyl-3-(6-methyl-3-pyridyl)isoxazol-4-yl]methyl]-5-[(2S)-2-methylmorpholin-4-yl]pyridazin-3-one]
4.2 | 80 | 1.8 | Cc1ccc(-c2noc(C)c2Cn2ncc(N3CC4(CCCO4)C3)cc2=O)nn1 [Example 171, 2-[[5-methyl-3-(6-methylpyridazin-3-yl)isoxazol-4-yl]methyl]-5-(5-oxa-2-azaspiro[3.4]octan-2-yl)pyridazin-3-one]
6.4 | 71 | 1.71 | COc1ccc(-c2cnn(Cc3c(-c4ccc(C)nc4)noc3C)c(=O)c2)cc1 [Example 76, 5-(4-methoxyphenyl)-2-[[5-methyl-3-(6-methylpyridin-3-yl)-1,2-oxazol-4-yl]methyl]pyridazin-3-one]
8.5 | 62 | 1.62 | COC1CN(c2cnn(Cc3c(-c4cc(C)on4)noc3C)c(=O)c2)C1 [Example 140, 5-(3-methoxyazetidin-1-yl)-2-[[5-methyl-3-(5-methylisoxazol-3-yl)isoxazol-4-yl]methyl]pyridazin-3-one]
2.6 | 84 | 1.84 | Cc1ncccc1N1CCN(c2cnn(Cc3c(-c4ccc(Cl)nc4)noc3C)c(=O)c2)CC1 [Example 285, 2-((3-(6-chloropyridin-3-yl)-5-methylisoxazol-4-yl)methyl)-5-(4-(2-methylpyridin-3-yl)piperazin-1-yl)pyridazin-3(2H)-one]
5.9 | 105 | 2.05 | Cc1onc(-c2ccc(C(F)(F)F)nn2)c1Cn1ncc(N2CC3(CC[C@@H](F)CO3)C2)cc1=O [Example 334, (R)-5-(7-fluoro-5-oxa-2-azaspiro[3.5]nonan-2-yl)-2-((5-methyl-3-(6-(trifluoromethyl)pyridazin-3-yl)isoxazol-4-yl)methyl)pyridazin-3(2H)-one]
41.8 | 117 | 2.17 | CCO[C@@H]1CN(c2cnn(Cc3c(-c4ccc(Cl)nc4)noc3C)c(=O)c2)[C@@H]1C [Example 294, 2-((3-(6-chloropyridin-3-yl)-5-methylisoxazol-4-yl)methyl)-5-((2R,3R)-3-ethoxy-2-methylazetidin-1-yl)pyridazin-3(2H)-one]
21.9 | 222 | 3.22 | Cc1ccc(-c2noc(C)c2Cn2ncc(N3CCN(C(=O)C4(C)CC4)CC3)cc2=O)cn1 [Example 10, 2-((5-methyl-3-(6-methylpyridin-3-yl)isoxazol-4-yl)methyl)-5-(4-(1-methylcyclopropanecarbonyl)piperazin-1-yl)pyridazin-3(2H)-one]
36.2 | 102 | 2.02 | Cc1ccc(-c2noc(C)c2Cn2ncc(N3CC4(CCC(F)CO4)C3)cc2=O)cn1 (single isomer, unassigned) [Example 276]
12.6 | 70 | 1.7 | Cc1ccc(-c2noc(CF)c2Cn2ncc(N3CC4(CCCCO4)C3)cc2=O)nn1 [Example 328, 2-((5-(fluoromethyl)-3-(6-methylpyridazin-3-yl)isoxazol-4-yl)methyl)-5-(5-oxa-2-azaspiro[3.5]nonan-2-yl)pyridazin-3(2H)-one]
